What all share (type): cell-based
Experiment [1] has as its system T47D (PI3Kα H1047R mutant) cells. The experiment in a line: CellTiter-Glo 2.0 luminescent cell viability assay, 72 hours, T47D cells. Particulars: T47D (PI3Kα H1047R mutant) cells, CellTiter-Glo, approximately 72 hours, read-out: T47D (H1047R mutant) Viability IC50. A digest of the protocol: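 Viability was measured by CellTiter-Glo 2.0 luminescence after approximately 72 h of compound exposure at 37° C. Plating was 1000 cells per well the day before dosing, with ten 1:4 dilutions from a 10 µM top concentration. Values as percent of vehicle were fitted by variable-slope log(inhibitor) regression to give IC50.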

The test system is the same in experiment [2]. The experiment in a line: Inhibition of pAKT formation, alphaLISA SureFire Ultra AKT 1/2/3 (pS473), T47D cells. To be noted: T47D (PI3Kα H1047R mutant) cells, inhibition of pAKT (pS473) formation, approximately one hour or 24 hours treatment, read-out: T47D pAKT (H1047R mutant) IC50. Here is the method: The ability of a compound of Formula (I) to inhibit the formation of pAKT was measured using alphaLISA Surefire Ultra AKT 1/2/3 (pS473) Assay Kit (#ALSU-PAKT-B50K) was obtained from Perkin Elmer (Waltham, MA).
To prepare assay plates for pAKT alphaLISA assays, cells were trypsinized, resuspended in fresh media, and viable cells were counted utilizing trypan blue exclusion. Prior to seeding, cells were washed with PBS and resuspended in HBSS (Gibco, #14025092). T47D (12,000/w), SKBR3(12,000/w), or MKN1(24,000/w) cells were seeded at 12 μl per well in a solid white flat bottom 384 cell culture plate (Perkin Elmer #6007680).
Immediately after seeding, cells were dosed using an Echo Liquid Handler (Beckman Coulter) with compounds at a […] starting concentration and serially diluted (1:4) for a total of 10 concentrations. […] Cells were incubated with the compounds (solubilized in DMSO) for approximately one hour or 24 hours at 37° C. After one hour (or 24 hours) of treatment, cells were lysed with 3 μl of the 5× lysis buffer (provided and incubated at room temperature for 15 min on a microtiter plate shaker). Once cells were sufficiently lysed, 7.5 μl of the acceptor bead mix (made using the manufacturers recommended dilutions) was added to each well and left on the microtiter plate shaker for 1 min prior to incubating plates at room temperature for one hour, in the absence of light. After one hour of incubation with the acceptor bead mix, 7.5 μl of the donor bead mix (made using the manufacturers recommended dilutions) was added to each well and left on the microtiter plate shaker for 1 min prior to incubating plates at room temperature overnight in the absence of light. Plates were then imaged the following day using a CLARIOstar microplate reader (BMG Labtech, Germany).
Percent of control values were calculated by subtracting the average signal from the positive control (alpelisib) treated wells from all treated wells (including DMSO control wells) and then divided by the average signal from the vehicle DMSO treated control wells. Percent of vehicle control values were plotted as log (inhibitor) vs. response-Variable slope (four parameters) for curve fitting and IC50 values were determined using XLfit.
Key: N.D. =not determined
Inhibition of pAKT in T47D (PI3Kα H1047R mutant) cells by Exemplary Compounds of Formula (I)

The test system of experiment [3] is SKBR3 (PI3Kα wild type) cells. The experiment in a line: CellTiter-Glo 2.0 luminescent cell viability assay, 72 hours, SKBR3 cells. To be noted: SKBR3 (PI3Kα wild type) cells, CellTiter-Glo, approximately 72 hours, read-out: SKBR3 (WT) Viability IC50. A digest of the protocol: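 Viability measured via CTG luminescence following roughly 72 hours of compound exposure at 37° C. Dosing used a 10 um starting concentration diluted 1:4 over 10 points; percent-of-vehicle data fitted with a variable-slope four-parameter model for IC50.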

Each structure is given as a SMILES string. Where two headings read alike, the source gives them in different places. Where only a bound is given, the exact number is not on record here.

Drawing on patent US20260078120A1, “SUBSTITUTED PYRIDOPYRIMIDINONES” (MIRATI THERAPEUTICS, INC., priority 2022, published 2026), this text covers IC50 for 17 compounds.

Turning to `Cc1cc([C@@H](C)Nc2ccccc2C(=O)O)c2nc(N3CCCCC3)c(F)c(=O)n2c1` [Example 10-79, (R)-2-((1-(3-fluoro-7-methyl-4-oxo-2-(piperidin-1-yl)-4H-pyrido[1,2-a]pyrimidin-9-yl)ethyl)amino)benzoic acid], the IC50 in experiment [1] (Homo sapiens, T47D, 72 h) is 77.5 nM; in experiment [2] (Homo sapiens, T47D), 0.299 nM; in experiment [3] (Homo sapiens, SK-BR-3, 72 h) it was more than 10000 nM.
`Cc1cc([C@@H](C)Nc2ccccc2C(=O)O)c2nc(N3CCN(CC(F)(F)F)CC3)c(C)c(=O)n2c1` [Example 10-125, (R)-2-((1-(3,7-dimethyl-4-oxo-2-(4-(2,2,2-trifluoroethyl)piperazin-1-yl)-4H-pyrido[1,2-a]pyrimidin-9-yl)ethyl)amino)benzoic acid]: the IC50 was 107 nM in experiment [1] (Homo sapiens, T47D, 72 h); 3.13 nM in experiment [2] (Homo sapiens, T47D); more than 10000 nM in experiment [3] (Homo sapiens, SK-BR-3, 72 h).
The matching figures for `Cc1cc([C@@H](C)Nc2ccccc2C(=O)O)c2nc(N3CCC4(CC3)COC4)c(C)c(=O)n2c1` [Example 10-111, (R)-2-((1-(3,7-dimethyl-4-oxo-2-(2-oxa-7-azaspiro[3.5]nonan-7-yl)-4H-pyrido[1,2-a]pyrimidin-9-yl)ethyl)amino)benzoic acid]: 96.4 nM, 4.82 nM and more than 10000 nM.
Turning to `Cc1cc([C@@H](C)Nc2ccccc2C(=O)O)c2nc(NCC3CC3)c(C#N)c(=O)n2c1` [Example 10-15, (R)-2-((1-(3-cyano-2-((cyclopropylmethyl)amino)-7-methyl-4-oxo-4H-pyrido[1,2-a]pyrimidin-9-yl)ethyl)amino)benzoic acid], the IC50 in experiment [1] (Homo sapiens, T47D, 72 h) was 36.4 nM; in experiment [2] (Homo sapiens, T47D), 0.853 nM; in experiment [3] (Homo sapiens, SK-BR-3, 72 h) it was more than 10000 nM.
The matching figures for `Cc1cc([C@@H](C)Nc2ccccc2C(=O)O)c2nc(N3CC[C@H]3CF)c(C#N)c(=O)n2c1` (single isomer, unassigned) [Example 10-54]: 72.2 nM, 3.36 nM and more than 10000 nM.
Turning to `COC1CCN(c2nc3c([C@@H](C)Nc4ccccc4C(=O)O)cc(C)cn3c(=O)c2C)CC1(F)F` (stereo partly drawn) [Example 10-116, 2-(((1R)-1-(2-(3,3-difluoro-4-methoxypiperidin-1-yl)-3,7-dimethyl-4-oxo-4H-pyrido[1,2-a]pyrimidin-9-yl)ethyl)amino)benzoic acid], the IC50 was 100 nM in experiment [1] (Homo sapiens, T47D, 72 h); 1.58 nM in experiment [2] (Homo sapiens, T47D); more than 10000 nM in experiment [3] (Homo sapiens, SK-BR-3, 72 h).
On the same counts, the results for `Cc1cc([C@@H](C)Nc2ccccc2C(=O)O)c2nc(N3CCN(c4ccc(F)cc4)CC3)c(C#N)c(=O)n2c1` [Example 10-40, (R)-2-((1-(3-cyano-2-(4-(4-fluorophenyl)piperazin-1-yl)-7-methyl-4-oxo-4H-pyrido[1,2-a]pyrimidin-9-yl)ethyl)amino)benzoic acid] are 60 nM, 1.91 nM and more than 10000 nM.
On the same counts, the results for `COC1CCN(c2nc3c([C@@H](C)Nc4ccccc4C(=O)O)cc(C)cn3c(=O)c2C#N)CC1` [Example 10-123, (R)-2-((1-(3-cyano-2-(4-methoxypiperidin-1-yl)-7-methyl-4-oxo-4H-pyrido[1,2-a]pyrimidin-9-yl)ethyl)amino)benzoic acid] are 104 nM, 2.39 nM and more than 10000 nM.
`Cc1cc([C@@H](C)Nc2ccccc2C(=O)O)c2nc(N3Cc4cc(F)c(F)cc4C3)c(C)c(=O)n2c1` [Example 10-140, (R)-2-((1-(2-(5,6-difluoroisoindolin-2-yl)-3,7-dimethyl-4-oxo-4H-pyrido[1,2-a]pyrimidin-9-yl)ethyl)amino)benzoic acid]: the IC50 in experiment [1] is 75.8 nM; in experiment [2] (Homo sapiens, T47D), 572 nM; in experiment [3] (Homo sapiens, SK-BR-3, 72 h), more than 10000 nM.
On to `Cc1cc([C@@H](C)Nc2ccccc2C(=O)O)c2nc(N3CC(F)(F)C(F)(F)C3)c(C)c(=O)n2c1` [Example 10-51, (R)-2-((1-(3,7-dimethyl-4-oxo-2-(3,3,4,4-tetrafluoropyrrolidin-1-yl)-4H-pyrido[1,2-a]pyrimidin-9-yl)ethyl)amino)benzoic acid], for which the IC50 in experiment [1] (Homo sapiens, T47D, 72 h) is 68 nM; in experiment [2] (Homo sapiens, T47D), 1.93 nM; in experiment [3] (Homo sapiens, SK-BR-3, 72 h) it was more than 10000 nM.
The matching figures for `Cc1cc([C@@H](C)Nc2ccccc2C(=O)O)c2nc(N3CCN(c4ccc(C#N)cc4)C[C@H]3C)c(C)c(=O)n2c1` [Example 10-22, 2-(((R)-1-(2-((R)-4-(4-cyanophenyl)-2-methylpiperazin-1-yl)-3,7-dimethyl-4-oxo-4H-pyrido[1,2-a]pyrimidin-9-yl)ethyl)amino)benzoic acid]: 48 nM, 3.85 nM and 5540 nM.
`Cc1cc([C@@H](C)Nc2ccc(F)nc2C(=O)O)c2nc(N3Cc4ccccc4C3)c(C)c(=O)n2c1` [Example 10-29, (R)-6-fluoro-3-((1-(2-(isoindolin-2-yl)-3,7-dimethyl-4-oxo-4H-pyrido[1,2-a]pyrimidin-9-yl)ethyl)amino)picolinic acid]: the IC50 in experiment [1] was 53.9 nM; in experiment [2] (Homo sapiens, T47D) it was 0.54 nM; in experiment [3], more than 10000 nM.
On to `Cc1cc([C@@H](C)Nc2ccccc2C(=O)O)c2nc(NCC3(C)CC3(F)F)c(C#N)c(=O)n2c1` (stereo partly drawn) [Example 10-60, 2-(((1R)-1-(3-cyano-2-(((2,2-difluoro-1-methylcyclopropyl)methyl)amino)-7-methyl-4-oxo-4H-pyrido[1,2-a]pyrimidin-9-yl)ethyl)amino)benzoic acid], for which the IC50 was 98.8 nM in experiment [1] (Homo sapiens, T47D, 72 h); 2.62 nM in experiment [2] (Homo sapiens, T47D); more than 10000 nM in experiment [3] (Homo sapiens, SK-BR-3, 72 h).
In the case of `Cc1cc([C@@H](C)Nc2ccccc2C(=O)O)c2nc(N3CCC(F)(F)C3)c(C#N)c(=O)n2c1` [Example 10-75, (R)-2-((1-(3-cyano-2-(3,3-difluoropyrrolidin-1-yl)-7-methyl-4-oxo-4H-pyrido[1,2-a]pyrimidin-9-yl)ethyl)amino)benzoic acid], the IC50 in experiment [1] (Homo sapiens, T47D, 72 h) is 110 nM; in experiment [2] (Homo sapiens, T47D), 1.05 nM; in experiment [3] (Homo sapiens, SK-BR-3, 72 h), more than 10000 nM.
For `Cc1cc([C@@H](C)Nc2ccccc2C(=O)O)c2nc(N3CCN(c4ccc(C#N)cc4)C[C@H]3C)c(C)c(=O)n2c1` [Example 10-42, 2-(((R)-1-(2-((R)-4-(4-cyanophenyl)-2-methylpiperazin-1-yl)-3,7-dimethyl-4-oxo-4H-pyrido[1,2-a]pyrimidin-9-yl)ethyl)amino)benzoic acid], the values for the 50% inhibitory concentration (IC50) in experiment [1], in experiment [2] and in experiment [3] were 61.5 nM, 3.09 nM and 9870 nM, respectively.
Regarding `Cc1cc([C@@H](C)Nc2ccccc2C(=O)O)c2nc(N3CCN(c4ccc(C#N)cc4)CC3C)c(C)c(=O)n2c1` (stereo partly drawn) [Example 10-20, 2-(((1R)-1-(2-(4-(4-cyanophenyl)-2-methylpiperazin-1-yl)-3,7-dimethyl-4-oxo-4H-pyrido[1,2-a]pyrimidin-9-yl)ethyl)amino)benzoic acid], the IC50 in experiment [1] turned out to be 42.7 nM; in experiment [2] (Homo sapiens, T47D), 1.6 nM; in experiment [3], 7450 nM.
For `Cc1cc([C@@H](C)Nc2ccccc2C(=O)O)c2nc(C3CCN(c4ccc(C#N)cc4)CC3)c(C#N)c(=O)n2c1` [Example 10-103, (R)-2-((1-(3-cyano-2-(1-(4-cyanophenyl)piperidin-4-yl)-7-methyl-4-oxo-4H-pyrido[1,2-a]pyrimidin-9-yl)ethyl)amino)benzoic acid], the IC50 in experiment [1] (Homo sapiens, T47D, 72 h) is 87.2 nM; in experiment [2] (Homo sapiens, T47D), 2.05 nM; in experiment [3] (Homo sapiens, SK-BR-3, 72 h) it was 8760 nM.
